Patent US10947202B2, “Sodium ion channel inhibitors and pharmaceutically acceptable salts and polymorphs thereof and uses thereof” (SHANGHAI HAIYAN PHARMACEUTICAL TECHNOLOGY CO., LTD., priority 2017, dated 2021)

Legend:
Solubility experiment = type: physicochemical; conditions: listed as free base sample
Procedure: The solubility of crystal forms A, D, E-1, E-3, F and free base sample in buffer of 0.1M HCl, pH 4.5, pH 6.8 and water was tested at room temperature. In the test, the standard curves of free base sample and five crystal forms were plotted. Subsequently, 6 mg of API and five crystal form samples were weighed, respectively, and 2 ml of the solvent was added, the mixture was shaken at room temperature for 4 h, then ultrasonicated for 30 min, centrifuged, and the supernatant was taken out, filtered through a 0.45 μm filter and injected, and the solubility was measured, the results are shown in Table 28 (concentration is in mg/ml).

[1] = Metabolism stability test in liver microsomes; type: in vitro ADME; conditions: human liver microsomes
Procedure: Buffer A: 1 L solution of 100 mM potassium dihydrogen phosphate containing 1 mM EDTA (Sigma, V900157-100G) was prepared.
Buffer B: 1 L solution of 100 mM dipotassium hydrogen phosphate containing 1 mM EDTA was prepared.
Buffer C: 700 mL of buffer B was taken out and titrated with buffer A to pH 7.4.
2.1 10 μl of 10 mM compound to be tested and 10 μl of 10 mM ketanserin were taken out and 190 μl of pure acetonitrile was added to each of them to prepare 500 μM compound to be tested and ketanserin, respectively.
2.2 20 μl (20 mg/mL) of liver microsomes (Corning Lot. NO. 4133007) stock solution was added to 513.4 μl of buffer C on wet ice. 0.75 mg/mL liver microsomal solution was obtained.
2.3 1.5 μl of each of the above-mentioned compound to be tested and ketanserin solution was added to 498.5 μl of liver microsomal solution (0.7 5 mg/mL) respectively on wet ice. 1.5 μM mixed solution of compound to be tested and 1.5 μM mixed solution of ketanserin were obtained.
2.4 At the time points 0, 5, 15, 30, 45, and 60 min, 30 μl of the mixed solution of compound to be tested and 30 μl of the mixed solution of ketanserin were dispensed into the reaction plate on wet ice, respectively.
2.5 5 mg reduced coenzyme II (Roche, 10621706001) was weighed and dissolved in 1 mL of buffer C. 6 mM reduced coenzyme II solution was obtained. The reduced coenzyme II solution was dispensed into the reaction plate.
2.6 Imipramine was dissolved to give a 10 mM solution. 10 μl imipramine solution was added to 100 mL of blank acetonitrile to generate the internal reference.
2.7 At 0 min, 135 μL of iced acetonitrile (Merck (Lot. 1778229518)) containing the internal reference was added to each well and then 15 μL of buffer C was added.
2.8 The reaction plate was placed into a 37° C. water bath incubator for 5 min. In the reaction plate, 15 μL of reduced coenzyme II solution was added to each well to initiate the reaction, and the time keeping was started. At the time points of 5, 15, 30, 45, and 60 min, 135 μL of iced acetonitrile containing the internal reference was added to each well to terminate the reaction.
2.9 The reaction plate was sealed with an aluminum film, placed on a vibration mixer and shaken at 500 rpm for 5 min. The plate was then centrifuged in a centrifuge at 3750 rp for 15 min.
2.10 The sample was diluted with pure water in accordance with the ratio of 1:1 and detected by LC/MS. […]
Wherein, the K value and the proportional factor were calculated by those skilled in the art according to the methods described in the prior art and contained in the instructions of the liver microsome product.

With `Cc1cc(N2CCN(Cc3cc(F)c(C(=O)NS(=O)(=O)C4CC4)cc3Cl)CC2)ccc1Cl` [the free base of formula X compound, 5-chloro-4-((4-(4-chloro-3-methylphenyl)piperazin-1-yl)methyl)-N-(cyclopropylsulfonyl)-2-fluorobenzamide] the “Solubility (mg/mL) 0.1M HCl” value (Solubility experiment; 0.1M HCl, room temperature) was 0.065 mg/mL, the “Solubility (mg/mL) pH4.5” value (Solubility experiment; buffer pH 4.5, room temperature) was 0.001 mg/mL and the “Solubility (mg/mL) pH6.8” value (Solubility experiment; buffer pH 6.8, room temperature) was 0.021 mg/mL. For the same compound, the “Solubility (mg/mL) H2O” value (Solubility experiment; water, room temperature) was 0.027 mg/mL, the “Clearance ratio” value [1] was 20.12 mL/min/kg and the “metabolic stability” value [1] was “good metabolic stability”.
